The target of data set [1] is T1, Indoleamine 2,3-dioxygenase 1 (Homo sapiens, UniProt P14902). The data set is described as follows: Inhibition of human Indoleamine 2,3-dioxygenase using L-tryptophan as substrate by emission fluorescence analysis.
In data set [2] the target is T1, Indoleamine 2,3-dioxygenase 1. The data set is described as follows: Inhibition of Indoleamine 2,3-dioxygenase in human HeLa cells in presence of L-tryptophan as substrate after 24 hrs in presence of L-tryptophan. Type of data set: cell-based.
Data set [3] can be described thus: Drug degradation in Sprague-Dawley rat plasma within 5 mins. It counts as ADME, cell-free. The note with it: read-out: Drug degradation.
A short description of data set [4]: (§1) Volume of distribution at steady state in Sprague-Dawley rat plasma at 2 mg/kg, iv by LC-MS/MS analysis. The note with it: Sprague-Dawley, plasma, read-out: Vdss. Type of data set: ADME, organism-based.
Data set [5] can be described thus: AUC (0 to infinity) in Sprague-Dawley rat plasma at 2 mg/kg, iv by LC-MS/MS analysis. It counts as ADME, organism-based. Set-up: dose 2 mg/kg, route intravenous, time infinity.
Data set [6] in a line: Half life in Sprague-Dawley rat plasma at 10 mg/kg, po by LC-MS/MS analysis. It counts as ADME, organism-based.
Data set [7] can be described thus: Cmax in Sprague-Dawley rat plasma at 10 mg/kg, po by LC-MS/MS analysis. Type of data set: ADME, organism-based. Also on record: dose 10 mg/kg, route oral.
Data set [8] is described as follows: Tmax in Sprague-Dawley rat plasma at 10 mg/kg, po by LC-MS/MS analysis. It counts as ADME, organism-based.
Data set [9] in a line: AUC (0 to infinity) in Sprague-Dawley rat plasma at 10 mg/kg, po by LC-MS/MS analysis. It counts as ADME, organism-based. Set-up: dose 10 mg/kg, route oral, time infinity.
The nature of data set [10]: Oral bioavailability in Sprague-Dawley rat plasma at 10 mg/kg by LC-MS/MS analysis. It counts as ADME, organism-based.
The nature of data set [11]: (§2) Half life in Sprague-Dawley rat plasma at 2 mg/kg, iv by LC-MS/MS analysis. It counts as ADME, organism-based. The settings on record: Sprague-Dawley, plasma.
Data set [12] can be described thus: Clearance in Sprague-Dawley rat plasma at 2 mg/kg, iv by LC-MS/MS analysis. It counts as ADME, organism-based.
The test system of data set [13] is Rattus norvegicus. The data set is described as §1. It counts as ADME, organism-based. The note with it: in vivo.
Data set [14] concerns Rattus norvegicus. The description is as §2. Type of data set: ADME, organism-based. The settings on record: in vivo.
In data set [15] the test system is B16-F10. The data set is described as follows: Antitumor activity against mouse B16F10 cells xenografted in mouse at 400 mg/kg bid dosed daily for 2 weeks. It counts as functional, organism-based.

Each structure is given as a SMILES string. Active and inactive are the calls of the source. No cut-off for these calls is given here.

T1 sequence (P14902 whole entry): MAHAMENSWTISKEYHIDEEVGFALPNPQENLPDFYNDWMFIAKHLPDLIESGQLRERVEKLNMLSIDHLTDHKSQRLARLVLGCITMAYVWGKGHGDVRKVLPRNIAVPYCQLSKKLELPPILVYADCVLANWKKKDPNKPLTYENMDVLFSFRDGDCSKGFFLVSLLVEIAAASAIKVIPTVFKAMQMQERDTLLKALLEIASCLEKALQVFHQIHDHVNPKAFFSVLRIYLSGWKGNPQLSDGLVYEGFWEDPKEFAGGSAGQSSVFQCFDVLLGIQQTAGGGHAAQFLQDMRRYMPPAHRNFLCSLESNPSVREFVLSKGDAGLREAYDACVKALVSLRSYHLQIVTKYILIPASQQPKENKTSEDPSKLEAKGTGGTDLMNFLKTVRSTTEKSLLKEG

As for `CC(=O)N1CCc2cc(S(=O)(=O)NNc3ccc(Br)cc3)ccc21`, 34.6 nM corresponded to half-maximal inhibition in data set [1] (IC50). The concentration giving a half-maximal response (EC50) (as a rule, the midpoint of the concentration-response curve) in data set [2] worked out at 231 nM.
As for `O=C(O)c1cccc(S(=O)(=O)NNc2ccc(Br)cc2)c1`, the metabolised at 5 min in [3] stood at 80%.
With `O=C1Nc2ccc(S(=O)(=O)NNc3ccc(Br)cc3)cc2C1=O`, in [1], the IC50 (as a rule, the concentration that inhibits the measured activity by half) was above 10000 nM.
`CC1(C)C(=O)Nc2ccc(S(=O)(=O)NNc3ccc(Br)cc3)cc21`: the Vd in [4] came out at 13 L/kg. For the same compound, the AUC(0-inf) (as a rule, the area under the concentration-time curve extrapolated to infinity) stood at 364 ng·h/mL in [5] and 304 ng·h/mL in [9]. The compound also gave an IC50 in data set [1] of 69.9 nM. Besides, the results for the half-life in data set [6] and in [11] were 4.7 h and 2.4 h, respectively. In addition, in [7], the Cmax (in general, the peak of the concentration-time curve) was determined as 72 ng/mL. The Tmax (in general, the time from dosing to the highest level) in data set [8] was found to be 1.3 h. Besides, in [10], the bioavailability (usually dose-corrected exposure relative to a reference, in per cent) was found to be 17%. Besides, the concentration giving a half-maximal response (EC50) in data set [2] stood at 36.4 nM. Also, the clearance (commonly the rate of elimination divided by the concentration) in data set [12] was determined as 93.3 mL/min/kg.
With `O=c1ccc2cc(S(=O)(=O)NNc3ccc(Br)cc3)ccc2[nH]1`, the IC50 in [1] stood at 85 nM. For the same compound, in data set [2], the half-maximal effective concentration (EC50) is 211 nM.
Regarding `O=C1CCc2cc(S(=O)(=O)NNc3ccc(Br)cc3)ccc2N1`, the Vdss (commonly a proportionality between amount in the body and measured concentration, not a real space) in [13] came out at 20.8 L/kg. Also, the AUC(0-inf) in data set [5] turned out to be 1350 ng·h/mL; in data set [9], 763 ng·h/mL. This compound also came in with an IC50 in data set [1] of 72.7 nM. Further, in data set [6], the half-life (in general, the time in which the quantity being followed falls by half) was 8.9 h. Further, in data set [7], the highest level (Cmax) was 63 ng/mL. For the same compound, the time to peak (Tmax) in data set [8] is 5.3 h. The compound further showed a bioavailability in [10] of 11%. Further, in [2], the EC50 is 67 nM. The t1/2 in data set [14] stood at 2.7 h.
As for `O=S(=O)(NNc1ccc(Br)cc1)c1ccc2[nH]c(O)nc2c1`, in [4], the Vd was found to be 6 L/kg. The results for the total exposure AUC(0-inf) in [5] and in data set [9] were 594 ng·h/mL and 382 ng·h/mL, respectively. The same compound registered an IC50 in data set [1] of 57.3 nM. Also, the half-life is 3 h in data set [6] and 0.8 h in data set [11]. Also, the highest level in data set [7] (Cmax) was 124 ng/mL. The time to peak (Tmax) in [8] turned out to be 1.3 h. In data set [10], this compound returned a bioavailability of 13%. Also, the concentration giving a half-maximal response (EC50) in data set [2] came out at 63.1 nM. In data set [12], the clearance was found to be 57.1 mL/min/kg.
`O=C1Nc2ccc(S(=O)(=O)NNc3ccc(Br)cc3)cc2C1(F)F` returned an IC50 in data set [1] of 52.3 nM. Further, the EC50 in data set [2] was 30.6 nM.
In data set [1], `CN1C(=O)Cc2cc(S(=O)(=O)NNc3ccc(Br)cc3)ccc21` registered an IC50 of 75.8 nM. The 50% effective concentration (EC50) in data set [2] is 365 nM.
For `CC(=O)Nc1ccc(S(=O)(=O)NNc2ccc(Br)cc2)cc1`, in data set [4], the Vd was found to be 1.5 L/kg. Further, the AUC(0-inf) in [5] turned out to be 1740 ng·h/mL; in data set [9] it was 3220 ng·h/mL. For the same compound, the half-life in data set [6] was 2.7 h; in [11], 3.5 h. Moreover, in data set [7], the highest level (Cmax) was 1190 ng/mL. For the same compound, the time to peak (Tmax) in data set [8] was found to be 0.7 h. Further, in data set [10], the bioavailability came to 37%. For the same compound, the result in [15] was inactive. Moreover, in [12], the clearance turned out to be 19.6 mL/min/kg.
In [1], `O=C(CCN1CCOCC1)Nc1ccc(S(=O)(=O)NNc2ccc(Br)cc2)cc1` displayed a concentration for half-maximal inhibition (IC50) of 77 nM. Moreover, the EC50 in data set [2] was found to be 217 nM.
As for `Nc1nc2cc(S(=O)(=O)NNc3ccc(Br)cc3)ccc2[nH]1`, the half-inhibitory concentration (IC50) in data set [1] was determined as 122 nM. Moreover, the EC50 in data set [2] was found to be 68.4 nM.
`O=C1CCCN1c1ccc(S(=O)(=O)NNc2ccc(Br)cc2)cc1`: in data set [4], the Vd amounted to 1 L/kg. In addition, the area under the curve AUC(0-inf) is 5580 ng·h/mL in [5] and 9730 ng·h/mL in [9]. The IC50 in data set [1] amounted to 68.1 nM. Moreover, the half-life is 1.7 h in data set [6] and 1.5 h in data set [11]. In data set [7], this compound registered a Cmax of 2050 ng/mL. For the same compound, the Tmax in data set [8] amounted to 4 h. The bioavailability in [10] amounted to 35%. Also, the 50% effective concentration (EC50) in data set [2] amounted to 89.6 nM. In data set [12], this compound displayed a clearance of 6.3 mL/min/kg.
In the case of `O=C1CCCc2cc(S(=O)(=O)NNc3ccc(Br)cc3)ccc2N1`, the midpoint of inhibition in [1], the IC50, lay at 112 nM. In addition, in [2], the EC50 is 195 nM.
For the compound `Cn1c(=O)n(C)c2cc(S(=O)(=O)NNc3ccc(Br)cc3)ccc21`, the 50% inhibitory concentration (IC50) in data set [1] stood at 47 nM. Also, the EC50 in data set [2] worked out at 135 nM.

(Values after ChEMBL document CHEMBL3763120, “Phenyl Benzenesulfonylhydrazides Exhibit Selective Indoleamine 2,3-Dioxygenase Inhibition with Potent in Vivo Pharmacodynamic Activity and Antitumor Efficacy” (J Med Chem, 2016).)
